Where two headings read alike, the source gives them in different places.

Results on nine molecules are retold here after patent publication US9779901B2, “High temperature material compositions for high temperature thermal cutoff devices” (Therm-O-Disc, Incorporated, priority 2008, dated 2017).

The conditions of data set [1]: 20° C.; cited from earlier work.
For data set [2] the following is noted: estimated melting point temperature ranges of candidate organic compounds (Table 2); some compounds have several values, partly in parentheses, because analytic techniques differ; cited from earlier work.

As to `OCC(CO)(CO)CO` [pentaerythritol, 2,2-Bis(hydroxymethyl)-1,3-propanediol], in data set [1], the “Vapor Pressure” value is listed as <1 mmHG (20° C.).

As for `Cc1nc2ccccc2c2ccc([N+](=O)[O-])cc12` [Example 23], the Melting Point is 243 to 245 °C. In data set [2], the “Melting Point” value is 243-245° ° C.

In the case of `c1ccc(-c2n[nH]c(-c3ccccc3)c2-c2ccccc2)cc1` [Example 189], the Melting Point was found to be 265 °C. Besides, the “Melting Point” value in data set [2] is listed as 265° ° C.

For `Cc1[nH]nc2c1N(c1ccccc1)C(=O)CC(=O)N2C` [Example 159], the Melting Point turned out to be 262 °C. In addition, the “Melting Point” value in data set [2] is 262° ° C.

`Cc1cc(=O)oc2cccc(O)c12` [Example 169] displayed a Melting Point of 263 °C. Moreover, the “Melting Point” value in data set [2] is 263° ° C.

`Nc1ccc2ccccc2c1-c1c(N)ccc2ccccc12` [Example 25] came in with a Melting Point of 242.5 to 243 °C. For the same molecule, in data set [2], the “Melting Point” value is 242.5-243° ° C.

As to `Oc1c2ccc3ccccc3c2cc2ccc3ccccc3c12` [Example 101], the Melting Point fell in the range of 254 to 256 °C. Besides, in data set [2], the “Melting Point” value is recorded as 254-256° ° C.

In turn, `Nc1cccc2c1C(=O)c1c(N)cccc1C2=O` [Example 198] came in with a Melting Point of 265 °C. The “Melting Point” value in data set [2] is 265° ° C.

Turning to `c1ccc(-c2nc3ncncc3[nH]2)cc1` [Example 150], the Melting Point was 261 to 262 °C. In data set [2], the “Melting Point” value is given as 261-262° ° C.
